According to patent US20110190269A1, “GAMMA SECRETASE MODULATORS” (priority 2010, published 2011):

System: γ-secretase
Assay: Cellular γ-secretase assay (inhibition of Aβ42 secretion)
Format: cell-based
Conditions: human neuroglioma H4 cells overexpressing human APP, 22 hrs incubation
Outline: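 H4 neuroglioma cells overexpressing human APP got a ten-point compound dilution (0.4% DMSO final) for 22 h at 37 °C. Secreted Aβ42 in the supernatant was measured by electrochemiluminescence sandwich immunoassay (capture biotinylated 6E10, detection ruthenylated BAP15). IC50 came from a nonlinear regression fit.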

Compound	EC50 [nM]
Cc1cn(-c2ccc(Nc3nc4c(-c5ccc(F)cc5Cl)cccn4n3)cc2C#N)cn1 [Example 113, 5-(8-(2-chloro-4-fluorophenyl)-[1,2,4]triazolo[1,5-a]pyridin-2-ylamino)-2-(4-methyl-1H-imidazol-1-yl)benzonitrile]	81
COc1cc(Nc2nc3c(-c4ccc(F)cc4Cl)cccn3n2)ccc1-c1cc(C)ncn1 [Example 114, 8-(2-chloro-4-fluorophenyl)-N-(3-methoxy-4-(6-methylpyrimidin-4-yl)phenyl)-[1,2,4]triazolo[1,5-a]pyridin-2-amine]	238
Cc1cc(-c2ccc(Nc3nc4c(-c5ccc(F)cc5Cl)cccn4n3)cc2)nc(C)n1 [Example 115, 8-(2-chloro-4-fluorophenyl)-N-(4-(2,6-dimethylpyrimidin-4-yl)phenyl)-[1,2,4]triazolo[1,5-a]pyridin-2-amine]	242
COc1cc(Nc2nc3c(-c4ccc(Cl)cc4)ccc(C(C)(C)O)n3n2)ccc1-n1cnc(C)c1 [Example 116, 2-{8-(4-Chloro-phenyl)-2-[3-methoxy-4-(4-methyl-imidazol-1-yl)-phenylamino]-[1,2,4]triazolo[1,5-a]pyridin-5-yl}-propan-2-ol]	117
COc1cc(Nc2nc3c(-c4ccc(Cl)cc4)cc(C4CC4)cn3n2)ccc1-n1cnc(C)c1 [Example 117, [8-(4-Chloro-phenyl)-6-cyclopropyl-[1,2,4]triazolo[1,5-a]pyridin-2-yl]-[3-methoxy-4-(4-methyl-imidazol-1-yl)-phenyl]-amine]	65
COc1cc(Nc2nc3c(-c4ccc(F)cc4)cc(C4CC4)cn3n2)ccc1-n1cnc(C)c1 [Example 118, [6-Cyclopropyl-8-(4-fluoro-phenyl)-[1,2,4]triazolo[1,5-a]pyridin-2-yl]-[3-methoxy-4-(4-methyl-imidazol-1-yl)-phenyl]-amine]	72
COc1cc(Nc2nc3c(-c4ccc(F)cc4)ccc(C(C)(C)O)n3n2)ccc1-n1cnc(C)c1 [Example 119, 2-{8-(4-Fluoro-phenyl)-2-[3-methoxy-4-(4-methyl-imidazol-1-yl)-phenylamino]-[1,2,4]triazolo[1,5-a]pyridin-5-yl}-propan-2-ol]	31
COc1cc(Nc2nc3c(-c4ccc(F)c(F)c4F)cc(C4CC4)cn3n2)ccc1-n1cnc(C)c1 [Example 120, [6-Cyclopropyl-8-(2,3,4-trifluoro-phenyl)-[1,2,4]triazolo[1,5-a]pyridin-2-yl]-[3-methoxy-4-(4-methyl-imidazol-1-yl)-phenyl]-amine]	96
COc1cc(Nc2nc3c(-c4ccc(F)cc4Cl)ccc(C(C)(C)O)n3n2)ccc1-n1cnc(C)c1 [Example 121, 2-{8-(2-Chloro-4-fluoro-phenyl)-2-[3-methoxy-4-(4-methyl-imidazol-1-yl)-phenylamino]-[1,2,4]triazolo[1,5-a]pyridin-5-yl}-propan-2-ol]	76
COc1cc(Nc2nc3c(-c4ccc(F)c(F)c4F)ccc(C(C)(C)O)n3n2)ccc1-n1cnc(C)c1 [Example 122, 2-[2-[3-Methoxy-4-(4-methyl-imidazol-1-yl)-phenylamino]-8-(2,3,4-trifluoro-phenyl)-[1,2,4]triazolo[1,5-a]pyridin-5-yl]-propan-2-ol]	79
COc1cc(Nc2nc3c(-c4ccc(F)c(Cl)c4)ccc(C(C)(C)O)n3n2)ccc1-n1cnc(C)c1 [Example 123, 2-{8-(3-Chloro-4-fluoro-phenyl)-2-[3-methoxy-4-(4-methyl-imidazol-1-yl)-phenylamino]-[1,2,4]triazolo[1,5-a]pyridin-5-yl}-propan-2-ol]	29
COc1cc(Nc2nc3n(n2)C(c2ccc(F)cc2)CN(C)C3)ccc1-n1cnc(C)c1 (centres unmarked) [Example 124, 5-(4-fluorophenyl)-N-(3-methoxy-4-(4-methyl-1H-imidazol-1-yl)phenyl)-7-methyl-5,6,7,8-tetrahydro-[1,2,4]triazolo[1,5-a]pyrazin-2-amine]	357
COc1cc(Nc2nc3c(-c4ccc(Cl)cc4)cccn3n2)ccc1-n1cnc(C)c1 [Example 125, [8-(4-Chloro-phenyl)-[1,2,4]triazolo[1,5-a]pyridin-2-yl]-[3-methoxy-4-(4-methyl-imidazol-1-yl)-phenyl]-amine]	50
COc1cc(Nc2nc3c(-c4ccc(F)c(F)c4)cccn3n2)ccc1-n1cnc(C)c1 [Example 126, [8-(3,4-Difluoro-phenyl)-[1,2,4]triazolo[1,5-a]pyridin-2-yl]-[3-methoxy-4-(4-methyl-imidazol-1-yl)-phenyl]-amine]	32
COc1cc(Nc2nc3c(-c4ccc(Cl)cc4)cccn3n2)ccc1-c1ccnc(C)c1 [Example 127, [8-(4-Chloro-phenyl)-[1,2,4]triazolo[1,5-a]pyridin-2-yl]-[3-methoxy-4-(2-methyl-pyridin-4-yl)-phenyl]-amine]	39
COc1cc(Nc2nc3c(-c4ccc(F)c(F)c4)cccn3n2)ccc1-c1ccnc(C)c1 [Example 128, 8-(3,4-Difluorophenyl)-N-(3-methoxy-4-(2-methylpyridin-4-yl)phenyl)-[1,2,4]triazolo[1,5-a]pyridin-2-amine]	30

Compound	EC50 [nM]
COc1cc(Nc2nc3n(n2)CCN(C)C3c2ccc(F)cc2)ccc1-n1cnc(C)c1 (centres unmarked) [Example 129, 8-(4-fluorophenyl)-N-(3-methoxy-4-(4-methyl-1H-imidazol-1-yl)phenyl)-7-methyl-5,6,7,8-tetrahydro-[1,2,4]triazolo[1,5-a]pyrazin-2-amine]	300
COc1cc(Nc2nc3c(-c4ccc(F)c(Cl)c4)cccn3n2)ccc1-n1cnc(C)c1 [Example 130, 8-(3-chloro-4-fluorophenyl)-N-(3-methoxy-4-(4-methyl-1H-imidazol-1-yl)phenyl)-[1,2,4]triazolo[1,5-a]pyridin-2-amine]	16
COc1cc(Nc2nc3c(-c4ccc(F)cc4Cl)cccn3n2)ccc1-n1cnc(C)c1 [Example 131, 8-(2-chloro-4-fluorophenyl)-N-(3-methoxy-4-(4-methyl-1H-imidazol-1-yl)phenyl)-[1,2,4]triazolo[1,5-a]pyridin-2-amine]	38
COc1cc(Nc2nc3c(-c4ccc(F)cc4F)cccn3n2)ccc1-n1cnc(C)c1 [Example 132, 8-(2,4-difluorophenyl)-N-(3-methoxy-4-(4-methyl-1H-imidazol-1-yl)phenyl)-[1,2,4]triazolo[1,5-a]pyridin-2-amine]	137
COc1cc(Nc2nc3c(-c4ccc(F)cc4Cl)cccn3n2)ccc1-c1ccnc(C)c1 [Example 133, [8-(2-Chloro-4-fluoro-phenyl)-[1,2,4]triazolo[1,5-a]pyridin-2-yl]-[3-methoxy-4-(2-methyl-pyridin-4-yl)-phenyl]-amine]	45
COc1cc(Nc2nc3c(-c4ccc(F)c(F)c4)ccc(C(F)(F)F)n3n2)ccc1-n1cnc(C)c1 [Example 135, 8-(3,4-difluorophenyl)-N-(3-methoxy-4-(4-methyl-1H-imidazol-1-yl)phenyl)-5-(trifluoromethyl)-[1,2,4]triazolo[1,5-a]pyridin-2-amine]	141
COc1cc(Nc2nc3c(Oc4ccccc4)cccn3n2)ccc1-n1cnc(C)c1 [Example 136, N-(3-methoxy-4-(4-methyl-1H-imidazol-1-yl)phenyl)-8-phenoxy-[1,2,4]triazolo[1,5-a]pyridin-2-amine]	152
COc1cc(Nc2nc3c(Oc4cccc(Cl)c4)cccn3n2)ccc1-n1cnc(C)c1 [Example 137, 8-(3-chlorophenoxy)-N-(3-methoxy-4-(4-methyl-1H-imidazol-1-yl)phenyl)-[1,2,4]triazolo[1,5-a]pyridin-2-amine]	266
COc1cc(Nc2nc3c(N4CCC(F)CC4)cccn3n2)ccc1-n1cnc(C)c1 [Example 139, 8-(4-fluoropiperidin-1-yl)-N-(3-methoxy-4-(4-methyl-1H-imidazol-1-yl)phenyl)-[1,2,4]triazolo[1,5-a]pyridin-2-amine]	311
COc1cc(Nc2nc3c(N4CCC(C(F)(F)F)CC4)cccn3n2)ccc1-n1cnc(C)c1 [Example 140, N-(3-methoxy-4-(4-methyl-1H-imidazol-1-yl)phenyl)-8-(4-(trifluoromethyl)piperidin-1-yl)-[1,2,4]triazolo[1,5-a]pyridin-2-amine]	180
COc1cc(Nc2nc3c(N4CCC(F)(F)CC4)cccn3n2)ccc1-n1cnc(C)c1 [Example 141, 8-(4,4-difluoropiperidin-1-yl)-N-(3-methoxy-4-(4-methyl-1H-imidazol-1-yl)phenyl)-[1,2,4]triazolo[1,5-a]pyridin-2-amine]	375
COc1cc(Nc2nc3n(n2)CCOC3c2ccccc2)ccc1-n1cnc(C)c1 (centres unmarked) [Example 142, N-(3-methoxy-4-(4-methyl-1H-imidazol-1-yl)phenyl)-8-phenyl-6,8-dihydro-5H-[1,2,4]triazolo[5,1-c][1,4]oxazin-2-amine]	232
COc1cc(Nc2nc3n(n2)CCCN3c2ccc(F)c(F)c2)ccc1-n1cnc(C)c1 [Example 143, 4-(3,4-Difluorophenyl)-N-(3-methoxy-4-(4-methyl-1H-imidazol-1-yl)phenyl)-4,5,6,7-tetrahydro-[1,2,4]triazolo[1,5-a]pyrimidin-2-amine]	185
COc1cc(Nc2nc3c(-c4ccc(Cl)cc4)cc(C)c(C(C)(C)O)n3n2)ccc1-n1cnc(C)c1 [Example 144, 2-{8-(4-Chloro-phenyl)-2-[3-methoxy-4-(4-methyl-imidazol-1-yl)-phenylamino]-6-methyl-[1,2,4]triazolo[1,5-a]pyridin-5-yl}-propan-2-ol]	69
COc1cc(Nc2nc3c(-c4ccc(F)c(F)c4)ccc(C(C)(C)O)n3n2)ccc1-n1cnc(C)c1 [Example 145, 2-{8-(3,4-Difluoro-phenyl)-2-[3-methoxy-4-(4-methyl-imidazol-1-yl)-phenylamino]-[1,2,4]triazolo[1,5-a]pyridin-5-yl}-propan-2-ol]	27
COc1cc(Nc2nc3c(-c4ccc(F)c(F)c4)cc(C4CC4)cn3n2)ccc1-n1cnc(C)c1 [Example 146, [6-Cyclopropyl-8-(3,4-difluoro-phenyl)-[1,2,4]triazolo[1,5-a]pyridin-2-yl]-[3-methoxy-4-(4-methyl-imidazol-1-yl)-phenyl]-amine]	69
